Data on 19 compounds can be found in PubChem BioAssay AID256 (DTP/NCI, 2004).

For this assay, the system named is CD2F1 mice, L1210 leukemia ip, survival T/C. As to the kind of experiment: NCI In Vivo Anticancer Drug Screen. Data for tumor model L1210 Leukemia (intraperitoneal) in CD2F1 (CDF1) mice. The following applies: higher = longer survival. The method, then: The antitumor activity of compounds was measured in mice bearing transplantable tumors. Survival or tumor size were measured and the results are expressed as the measurement made in the treated group (T) divided by the measurement made in the vehicle treated control group (C). The tumor model used in this assay is L1210 Leukemia (intraperitoneal) in CD2F1 (CDF1) mice

Where [1] appears, read: endpoint: mean survival time, dose: 100.0 mg/kg/injection, schedule: Q04DX003 (ip), vehicle: saline with Tween-80.
[2] abbreviates: endpoint: mean survival time, dose: 200.0 mg/kg/injection, schedule: Q04DX003 (ip), vehicle: saline with Tween-80.
[3] abbreviates: endpoint: mean survival time, dose: 400.0 mg/kg/injection, schedule: Q04DX003 (ip), vehicle: saline with Tween-80.
Setting [4] is: endpoint: mean survival time, dose: 100.0 mg/kg/injection, schedule: Q01DX001 (ip), vehicle: saline with Tween-80.
The mark [5] stands for this setting: endpoint: mean survival time, dose: 200.0 mg/kg/injection, schedule: Q01DX001 (ip), vehicle: saline with Tween-80.
The mark [6] stands for this setting: endpoint: mean survival time, dose: 400.0 mg/kg/injection, schedule: Q01DX001 (ip), vehicle: saline with Tween-80.
The mark [7] stands for this setting: endpoint: mean survival time, dose: 100.0 mg/kg/injection, schedule: Q01DX009 (ip), vehicle: saline with Tween-80.
The mark [8] stands for this setting: endpoint: mean survival time, dose: 200.0 mg/kg/injection, schedule: Q01DX009 (ip), vehicle: saline with Tween-80.
Where [9] appears, read: endpoint: mean survival time, dose: 400.0 mg/kg/injection, schedule: Q01DX009 (ip), vehicle: saline with Tween-80.
Setting [10] is: endpoint: mean survival time, dose: 6.25 mg/kg/injection, schedule: Q04DX003 (ip), vehicle: saline with Tween-80.
The mark [11] stands for this setting: endpoint: mean survival time, dose: 12.5 mg/kg/injection, schedule: Q04DX003 (ip), vehicle: saline with Tween-80.
The mark [12] stands for this setting: endpoint: median survival time, dose: 25.0 mg/kg/injection, schedule: Q04DX003 (ip), vehicle: saline with Tween-80.

“And” between values parts separate entries of the source, which are not always exact repeats. Equal values may be shown once. Inconclusive results and toxic doses are left out.

Take `O=C(OC1C(COP(=O)(Oc2ccccc2)Oc2ccccc2)OC(n2nc(SCc3ccccc3)c(=O)[nH]c2=O)C1OC(=O)c1ccccc1)c1ccccc1` (configuration not stated): the T/C (endpoint: median survival time, dose: 12.5 mg/kg/injection, schedule: Q01DX005 (ip), vehicle: distilled water + Tween-80) is 96 % of control; the T/C (endpoint: median survival time, dose: 25.0 mg/kg/injection, schedule: Q01DX005 (ip), vehicle: distilled water + Tween-80) is 96 % of control; the T/C (endpoint: median survival time, dose: 50.0 mg/kg/injection, schedule: Q01DX005 (ip), vehicle: distilled water + Tween-80) was 97 % of control; the T/C (endpoint: median survival time, dose: 100.0 mg/kg/injection, schedule: Q01DX005 (ip), vehicle: distilled water + Tween-80) was 97 % of control; the T/C (endpoint: median survival time, dose: 200.0 mg/kg/injection, schedule: Q01DX005 (ip), vehicle: distilled water + Tween-80) was 96 % of control.

In the case of `COc1ccc(NC(=O)Oc2cccc3ccccc23)c(Cl)c1`, the T/C by setting is: (endpoint: mean survival time, dose: 50.0 mg/kg/injection, schedule: Q01DX009 (ip), vehicle: Klucel (hydroxypropylcellulose) (HPC)) 100 % of control; (endpoint: mean survival time, dose: 100.0 mg/kg/injection, schedule: Q01DX009 (ip), vehicle: Klucel (hydroxypropylcellulose) (HPC)) 100 % of control; (endpoint: mean survival time, dose: 100.0 mg/kg/injection, schedule: Q04DX003 (ip), vehicle: Klucel (hydroxypropylcellulose) (HPC)) 106 % of control; (endpoint: mean survival time, dose: 200.0 mg/kg/injection, schedule: Q01DX009 (ip), vehicle: Klucel (hydroxypropylcellulose) (HPC)) 100 % of control; (endpoint: mean survival time, dose: 200.0 mg/kg/injection, schedule: Q04DX003 (ip), vehicle: Klucel (hydroxypropylcellulose) (HPC)) 106 % of control; (endpoint: mean survival time, dose: 400.0 mg/kg/injection, schedule: Q04DX003 (ip), vehicle: Klucel (hydroxypropylcellulose) (HPC)) 102 % of control.

As to `COc1ccc(C2CCc3cc4c(cc3C2=O)OCO4)cc1OC` (configuration not stated), the T/C reads like this: under setting [1], 98 % of control; under setting [2], 96 % of control; under setting [3], 91 % of control.

On to `CN(C)C1C(CO)C(CO)C1(C)C` (configuration not stated), for which the T/C runs as follows: (endpoint: mean survival time, dose: 50.0 mg/kg/injection, schedule: Q01DX001 (ip), vehicle: saline with Tween-80) 98 % of control; under setting [4], 97 % of control; under setting [5], 98 % of control; under setting [6], 97 % of control.

Turning to `COC(=O)/C(C#N)=C(\C)CC(C)C`, the T/C was 100 % of control (endpoint: mean survival time, dose: 75.0 mg/kg/injection, schedule: Q01DX001 (ip), vehicle: saline) and 94 % of control (endpoint: mean survival time, dose: 150.0 mg/kg/injection, schedule: Q01DX001 (ip), vehicle: saline).

Turning to `COc1ccc(NC(=O)Nc2ccc(Br)cc2)cc1`, the T/C by setting is: under setting [7], 88 % of control; under setting [1], 96 % of control; under setting [8], 89 % of control; under setting [2], 98 % of control; under setting [9], 89 % of control.

With `CC1CCC2CC(=O)NC(=O)CC12` (configuration not stated), the T/C runs as follows: (endpoint: mean survival time, dose: 6.25 mg/kg/injection, schedule: Q01DX009 (ip), vehicle: saline with Tween-80) 98 % of control; under setting [10], 97 % of control; (endpoint: mean survival time, dose: 12.5 mg/kg/injection, schedule: Q01DX009 (ip), vehicle: saline with Tween-80) 95 % of control; under setting [11], 97 % of control; (endpoint: mean survival time, dose: 25.0 mg/kg/injection, schedule: Q01DX009 (ip), vehicle: saline with Tween-80) 96 % of control; (endpoint: mean survival time, dose: 25.0 mg/kg/injection, schedule: Q04DX003 (ip), vehicle: saline with Tween-80) 92 % of control.

Consider `CC(=O)NCCN=Cc1ccccc1`, for which the T/C by setting is: under setting [7], 97 % of control; under setting [1], 95 % of control; under setting [8], 95 % of control; under setting [2], 95 % of control; under setting [9], 97 % of control; under setting [3], 97 % of control.

As for `CC(=O)CC(C)=O.CC(=O)CC(C)=O.O=N[O-].O=N[O-].[Co]`, the T/C reads like this: (endpoint: median survival time, dose: 12.5 mg/kg/injection, schedule: Q01DX009 (ip), vehicle: saline with Tween-80) 106 % of control and 108 % of control and 111 % of control; (endpoint: median survival time, dose: 25.0 mg/kg/injection, schedule: Q01DX009 (ip), vehicle: saline with Tween-80) 118 % of control and 111 % of control and 112 % of control; (endpoint: median survival time, dose: 50.0 mg/kg/injection, schedule: Q01DX009 (ip), vehicle: saline with Tween-80) 116 % of control and 118 % of control; (endpoint: median survival time, dose: 100.0 mg/kg/injection, schedule: Q01DX009 (ip), vehicle: saline with Tween-80) 90 % of control.

As to `CC(C)(C)c1cc2c3c(c1)Oc1cc(C(C)(C)C)cc4c1C3(O)c1c(cc(C(C)(C)C)cc1O4)O2`, the T/C runs as follows: (endpoint: median survival time, dose: 3.12 mg/kg/injection, schedule: Q01DX009 (ip), vehicle: Klucel (hydroxypropylcellulose) (HPC)) 107 % of control; (endpoint: median survival time, dose: 6.25 mg/kg/injection, schedule: Q01DX009 (ip), vehicle: Klucel (hydroxypropylcellulose) (HPC)) 112 % of control; (endpoint: median survival time, dose: 12.5 mg/kg/injection, schedule: Q01DX009 (ip), vehicle: Klucel (hydroxypropylcellulose) (HPC)) 104 % of control.

For `CCOC(=O)C1C2CC(O)C(O)CC21` (configuration not stated), the T/C reads like this: under setting [12], 90 % of control; (endpoint: median survival time, dose: 50.0 mg/kg/injection, schedule: Q04DX003 (ip), vehicle: saline with Tween-80) 90 % of control.

In the case of `CCCCCCCCCCCCCCCCC(CCC)C1CCCCC1` (configuration not stated), the T/C by setting is: under setting [4], 92 % of control; under setting [5], 104 % of control; under setting [6], 101 % of control.

Take `O=[N+]([O-])C1CC=CCC1C(Cl)(Cl)Cl` (configuration not stated): the T/C (endpoint: mean survival time, dose: 5.0 mg/kg/injection, schedule: Q01DX009 (ip), vehicle: saline with Tween-80) is 97 % of control and the T/C (endpoint: mean survival time, dose: 10.0 mg/kg/injection, schedule: Q01DX009 (ip), vehicle: saline with Tween-80) is 103 % of control.

Turning to `Oc1ccccc1C1=CCCCCC1`, the T/C by setting is: (endpoint: mean survival time, dose: 100.0 mg/kg/injection, schedule: Q04DX003 (ip), vehicle: saline) 95 % of control; (endpoint: mean survival time, dose: 200.0 mg/kg/injection, schedule: Q04DX003 (ip), vehicle: saline) 101 % of control; (endpoint: mean survival time, dose: 400.0 mg/kg/injection, schedule: Q04DX003 (ip), vehicle: saline) 104 % of control.

In the case of `CC(Cc1ccc2c(c1)OCO2)NCC(O)c1ccc(O)c(O)c1` (configuration not stated), the T/C (endpoint: mean survival time, dose: 100.0 mg/kg/injection, schedule: Q01DX001 (ip), vehicle: saline) was 103 % of control and the T/C (endpoint: mean survival time, dose: 200.0 mg/kg/injection, schedule: Q01DX001 (ip), vehicle: saline) was 109 % of control.

In the case of `CCOC(C[Se][Se]CC(OCC)OCC)OCC`, the T/C (endpoint: mean survival time, dose: 3.13 mg/kg/injection, schedule: Q01DX009 (ip), vehicle: saline) was 100 % of control; the T/C (endpoint: mean survival time, dose: 6.25 mg/kg/injection, schedule: Q01DX009 (ip), vehicle: saline) is 108 % of control; the T/C under setting [10] is 95 % of control; the T/C under setting [11] was 102 % of control.

On to `CN(C)c1ccc(N=Nc2cccc(C(=O)[O-])c2)cc1.CN(C)c1ccc(N=Nc2cccc(C(=O)[O-])c2)cc1.NC1CCCCC1N.O=[N+]([O-])O.[Pt+4]`, for which the T/C is, setting by setting: (endpoint: median survival time, dose: 3.12 mg/kg/injection, schedule: Q04DX003 (ip), vehicle: saline with Tween-80) 104 % of control and 108 % of control; (endpoint: median survival time, dose: 6.25 mg/kg/injection, schedule: Q04DX003 (ip), vehicle: saline with Tween-80) 105 % of control and 110 % of control; (endpoint: median survival time, dose: 12.5 mg/kg/injection, schedule: Q04DX003 (ip), vehicle: saline with Tween-80) 120 % of control and 105 % of control; under setting [12], 110 % of control; (endpoint: median survival time, dose: 100.0 mg/kg/injection, schedule: Q04DX003 (ip), vehicle: saline with Tween-80) 212 % of control and 313 % of control; (endpoint: median survival time, dose: 200.0 mg/kg/injection, schedule: Q04DX003 (ip), vehicle: saline with Tween-80) 361 % of control.

Turning to `CC(=O)Nc1ncc2ccccc2c1-c1ccc(NC(=O)CCCl)cc1`, the T/C runs as follows: (endpoint: mean survival time, dose: 25.0 mg/kg/injection, schedule: Q04DX003 (ip), vehicle: DMSO) 101 % of control; (endpoint: mean survival time, dose: 50.0 mg/kg/injection, schedule: Q04DX003 (ip), vehicle: DMSO) 96 % of control; (endpoint: mean survival time, dose: 100.0 mg/kg/injection, schedule: Q04DX003 (ip), vehicle: DMSO) 94 % of control; (endpoint: mean survival time, dose: 200.0 mg/kg/injection, schedule: Q04DX003 (ip), vehicle: DMSO) 91 % of control; (endpoint: mean survival time, dose: 400.0 mg/kg/injection, schedule: Q04DX003 (ip), vehicle: DMSO) 94 % of control.

`COc1cc(/C=C(\C#N)c2ccc(Cl)cc2)ccc1OCc1ccccc1`: the T/C was 95 % of control (endpoint: mean survival time, dose: 50.0 mg/kg/injection, schedule: Q01DX009 (ip), vehicle: saline with Tween-80); 90 % of control under setting [7]; 89 % of control under setting [1]; 90 % of control under setting [8]; 89 % of control under setting [2]; 89 % of control under setting [3].
